Assay results: ChEMBL document CHEMBL1201862, “PubChem BioAssay data set” (2004)
Active and inactive are the calls of the source. For most assays here, no stated cut-off is given here; in the data, actives have a measured IC50 and inactives only a lower limit.

Experiments:
Type in all cases: functional
[1] = target: Intestinal-type alkaline phosphatase (Mus musculus, UniProt P24822); assay: PubChem AID 488785
[2] = target: Intestinal-type alkaline phosphatase (Homo sapiens, UniProt P09923); assay: inhibition of human intestinal alkaline phosphatase – biochemical, dose response (AID 488876)
[3] = target: T1, Alkaline phosphatase, tissue-nonspecific isozyme (Homo sapiens, UniProt P05186); assay: TNAP enzyme inhibition by screening hits, dose response, selectivity assay for mouse IAP inhibitor project, biochemical, human TNAP, uHTS hits (AID 488906)
T1 sequence (P05186 whole entry): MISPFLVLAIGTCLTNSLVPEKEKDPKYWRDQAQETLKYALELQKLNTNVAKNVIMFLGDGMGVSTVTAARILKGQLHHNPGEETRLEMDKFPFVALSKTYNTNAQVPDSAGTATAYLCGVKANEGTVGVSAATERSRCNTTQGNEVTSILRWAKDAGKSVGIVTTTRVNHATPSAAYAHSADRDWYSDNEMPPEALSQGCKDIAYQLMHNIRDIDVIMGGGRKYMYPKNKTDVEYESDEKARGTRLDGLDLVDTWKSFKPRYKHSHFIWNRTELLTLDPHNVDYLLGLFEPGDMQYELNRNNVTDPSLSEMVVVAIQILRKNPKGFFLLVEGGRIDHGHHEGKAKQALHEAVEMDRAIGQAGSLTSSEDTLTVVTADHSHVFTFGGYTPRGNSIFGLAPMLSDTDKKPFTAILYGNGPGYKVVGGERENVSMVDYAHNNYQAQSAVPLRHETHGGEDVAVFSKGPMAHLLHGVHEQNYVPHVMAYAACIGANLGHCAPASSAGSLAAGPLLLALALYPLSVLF

[4] = target: T2, Voltage-gated N-type calcium channel alpha-1B subunit/Amyloid beta A4 precursor protein-binding family A member 1 (Homo sapiens, UniProt Q00975+Q02410); assay: disruptors of Mint-PDZ/N-type channel peptide interaction – biochemical, HTRF, set 2, SAR follow-up (AID 434980)
[5] = target: T2, Voltage-gated N-type calcium channel alpha-1B subunit/Amyloid beta A4 precursor protein-binding family A member 1; assay: disruptors of Mint-PDZ/N-type channel peptide interaction – biochemical, HTRF, SAR follow-up (AID 2489)
[6] = target: SUMO E1/E2 (Homo sapiens, UniProt P63279+Q9UBE0+Q9UBT2); assay: SAR analysis of SUMOylation using HTRF in an in-Vitro dose response assay. [Related pubchem assays (depositor defined):AID2006, AID2011, AID2018, AID2069, AID2658]
[7] = target: T3, Protein RecA (Mycobacterium tuberculosis, UniProt P9WHJ3); assay: Fluorescence Cell-Free Homogeneous Dose Retest to Identify Inhibitors of RecA-Intein Splicing Activity. [Related pubchem assays (depositor defined):AID2097, AID2223, AID489010, AID492950]
T3 sequence (P9WHJ3 whole entry): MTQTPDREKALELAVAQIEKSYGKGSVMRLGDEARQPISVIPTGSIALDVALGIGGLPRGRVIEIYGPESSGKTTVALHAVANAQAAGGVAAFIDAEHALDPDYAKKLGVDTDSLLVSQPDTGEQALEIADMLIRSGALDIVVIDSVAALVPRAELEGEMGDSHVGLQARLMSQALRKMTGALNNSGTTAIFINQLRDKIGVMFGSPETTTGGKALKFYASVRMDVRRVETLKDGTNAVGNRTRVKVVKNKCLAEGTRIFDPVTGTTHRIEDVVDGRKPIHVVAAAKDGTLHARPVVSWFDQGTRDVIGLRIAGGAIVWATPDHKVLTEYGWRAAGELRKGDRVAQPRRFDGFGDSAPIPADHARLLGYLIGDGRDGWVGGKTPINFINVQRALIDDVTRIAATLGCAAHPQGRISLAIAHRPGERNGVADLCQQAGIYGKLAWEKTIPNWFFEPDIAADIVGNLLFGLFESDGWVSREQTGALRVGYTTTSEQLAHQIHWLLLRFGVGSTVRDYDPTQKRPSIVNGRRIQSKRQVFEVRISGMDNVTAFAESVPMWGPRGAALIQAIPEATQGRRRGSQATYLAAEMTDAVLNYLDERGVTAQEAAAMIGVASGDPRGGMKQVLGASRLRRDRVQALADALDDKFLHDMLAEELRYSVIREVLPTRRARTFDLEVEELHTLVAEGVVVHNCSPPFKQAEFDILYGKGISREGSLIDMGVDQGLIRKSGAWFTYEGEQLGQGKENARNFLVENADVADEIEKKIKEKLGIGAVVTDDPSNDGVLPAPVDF

[8] = target: Tyrosine-protein phosphatase non-receptor type 7 (Homo sapiens, UniProt P35236)
[9] = target: T4, Replicative DNA helicase DnaB (Mycobacterium tuberculosis, UniProt P9WMR3); assay: DnaB intein splicing inhibitors, dose response, biochemical, cell-free fluorescence (AID 449749)
T4 sequence (P9WMR3 whole entry): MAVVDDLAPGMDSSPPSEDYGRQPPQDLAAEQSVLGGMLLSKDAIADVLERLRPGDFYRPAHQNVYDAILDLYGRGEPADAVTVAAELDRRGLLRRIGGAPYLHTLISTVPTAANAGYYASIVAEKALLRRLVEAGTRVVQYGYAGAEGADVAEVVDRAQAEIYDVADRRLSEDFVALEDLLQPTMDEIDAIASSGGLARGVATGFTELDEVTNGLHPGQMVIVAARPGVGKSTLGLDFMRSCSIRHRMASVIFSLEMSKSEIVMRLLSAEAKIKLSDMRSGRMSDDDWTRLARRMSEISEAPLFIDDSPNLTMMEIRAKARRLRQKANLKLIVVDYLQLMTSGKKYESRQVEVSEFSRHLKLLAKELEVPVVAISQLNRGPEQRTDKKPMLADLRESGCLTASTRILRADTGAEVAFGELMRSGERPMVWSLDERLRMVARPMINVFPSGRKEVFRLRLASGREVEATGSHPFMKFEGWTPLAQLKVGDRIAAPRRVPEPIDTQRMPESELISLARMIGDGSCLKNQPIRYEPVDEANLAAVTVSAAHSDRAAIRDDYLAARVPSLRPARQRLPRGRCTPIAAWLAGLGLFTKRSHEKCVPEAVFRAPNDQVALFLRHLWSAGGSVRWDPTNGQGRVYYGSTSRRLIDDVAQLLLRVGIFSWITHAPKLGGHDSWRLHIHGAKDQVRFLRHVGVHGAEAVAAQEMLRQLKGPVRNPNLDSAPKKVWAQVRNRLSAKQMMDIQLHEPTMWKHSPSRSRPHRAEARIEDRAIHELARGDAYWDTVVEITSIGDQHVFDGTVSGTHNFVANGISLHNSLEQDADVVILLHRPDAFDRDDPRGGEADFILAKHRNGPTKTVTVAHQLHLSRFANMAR

[10] = target: T5, Tyrosine-protein phosphatase non-receptor type 22 (Homo sapiens, UniProt Q9Y2R2)
[11] = target: T5, Tyrosine-protein phosphatase non-receptor type 22; remark: listed apart in the source
[12] = target: Prothrombin (Homo sapiens, UniProt P00734); assay: Thrombin 1536 HTS Dose Response Confirmation. [Related pubchem assays: 1046 (Thrombin 1536 HTS; hits were confirmed in this assay)]

T2 sequence (Q00975 whole entry): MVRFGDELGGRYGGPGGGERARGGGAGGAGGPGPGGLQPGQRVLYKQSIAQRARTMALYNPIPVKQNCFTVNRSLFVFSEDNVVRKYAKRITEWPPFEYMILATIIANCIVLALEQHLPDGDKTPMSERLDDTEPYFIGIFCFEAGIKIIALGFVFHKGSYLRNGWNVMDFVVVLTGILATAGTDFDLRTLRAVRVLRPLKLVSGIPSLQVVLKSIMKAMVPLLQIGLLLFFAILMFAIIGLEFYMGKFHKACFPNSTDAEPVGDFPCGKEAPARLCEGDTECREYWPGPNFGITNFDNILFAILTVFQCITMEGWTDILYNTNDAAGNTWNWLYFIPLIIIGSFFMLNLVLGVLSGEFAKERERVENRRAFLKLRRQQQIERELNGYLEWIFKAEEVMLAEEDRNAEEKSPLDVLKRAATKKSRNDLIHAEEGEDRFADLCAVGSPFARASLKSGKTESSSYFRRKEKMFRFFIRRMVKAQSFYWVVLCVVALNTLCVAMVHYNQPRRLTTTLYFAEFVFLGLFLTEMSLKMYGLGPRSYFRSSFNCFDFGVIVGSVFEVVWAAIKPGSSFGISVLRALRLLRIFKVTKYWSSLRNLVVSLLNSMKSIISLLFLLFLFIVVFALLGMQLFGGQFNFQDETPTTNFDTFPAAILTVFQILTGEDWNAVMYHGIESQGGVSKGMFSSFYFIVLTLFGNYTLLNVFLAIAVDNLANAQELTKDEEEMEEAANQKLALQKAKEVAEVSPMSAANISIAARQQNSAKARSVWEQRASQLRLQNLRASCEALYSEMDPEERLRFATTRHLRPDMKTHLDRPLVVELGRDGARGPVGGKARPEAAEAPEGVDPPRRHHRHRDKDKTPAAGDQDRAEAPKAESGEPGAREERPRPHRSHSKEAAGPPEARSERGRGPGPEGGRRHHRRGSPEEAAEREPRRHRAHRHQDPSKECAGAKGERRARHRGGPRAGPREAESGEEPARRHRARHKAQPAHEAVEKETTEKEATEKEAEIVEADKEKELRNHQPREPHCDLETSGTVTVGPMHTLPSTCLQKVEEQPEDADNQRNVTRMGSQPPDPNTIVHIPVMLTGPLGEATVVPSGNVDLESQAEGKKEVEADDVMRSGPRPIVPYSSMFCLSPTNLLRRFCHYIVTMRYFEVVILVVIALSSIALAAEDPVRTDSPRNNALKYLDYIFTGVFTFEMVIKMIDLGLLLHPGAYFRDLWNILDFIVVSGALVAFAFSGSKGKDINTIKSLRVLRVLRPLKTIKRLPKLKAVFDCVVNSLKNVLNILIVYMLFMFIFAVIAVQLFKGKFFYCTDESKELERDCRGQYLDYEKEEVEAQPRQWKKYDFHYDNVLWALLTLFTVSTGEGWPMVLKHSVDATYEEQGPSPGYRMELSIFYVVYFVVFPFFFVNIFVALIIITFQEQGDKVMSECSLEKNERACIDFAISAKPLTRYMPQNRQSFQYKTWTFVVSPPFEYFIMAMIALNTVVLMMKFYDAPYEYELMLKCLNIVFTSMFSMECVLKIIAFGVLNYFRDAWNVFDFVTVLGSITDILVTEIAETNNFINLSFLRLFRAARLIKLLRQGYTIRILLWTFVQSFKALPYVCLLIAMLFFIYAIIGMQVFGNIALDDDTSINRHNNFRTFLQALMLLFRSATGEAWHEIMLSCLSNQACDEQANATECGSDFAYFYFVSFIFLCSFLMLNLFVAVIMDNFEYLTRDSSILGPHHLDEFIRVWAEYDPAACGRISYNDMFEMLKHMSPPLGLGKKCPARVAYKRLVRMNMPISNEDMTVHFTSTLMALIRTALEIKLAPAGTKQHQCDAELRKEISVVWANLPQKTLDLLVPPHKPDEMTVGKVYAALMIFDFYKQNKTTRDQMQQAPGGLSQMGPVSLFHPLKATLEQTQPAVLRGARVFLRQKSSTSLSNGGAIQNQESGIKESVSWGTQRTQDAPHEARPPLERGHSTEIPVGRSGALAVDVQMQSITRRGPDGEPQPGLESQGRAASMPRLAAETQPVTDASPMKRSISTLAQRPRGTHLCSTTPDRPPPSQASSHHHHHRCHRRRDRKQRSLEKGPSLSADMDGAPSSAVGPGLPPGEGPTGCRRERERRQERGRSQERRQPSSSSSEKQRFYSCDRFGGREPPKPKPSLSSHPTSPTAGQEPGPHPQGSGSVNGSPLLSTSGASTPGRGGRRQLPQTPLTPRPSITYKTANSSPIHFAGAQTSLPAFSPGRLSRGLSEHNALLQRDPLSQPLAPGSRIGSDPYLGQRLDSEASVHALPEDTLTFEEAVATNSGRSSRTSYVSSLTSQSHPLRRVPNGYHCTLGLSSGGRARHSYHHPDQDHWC
T2 sequence (Q02410 whole entry): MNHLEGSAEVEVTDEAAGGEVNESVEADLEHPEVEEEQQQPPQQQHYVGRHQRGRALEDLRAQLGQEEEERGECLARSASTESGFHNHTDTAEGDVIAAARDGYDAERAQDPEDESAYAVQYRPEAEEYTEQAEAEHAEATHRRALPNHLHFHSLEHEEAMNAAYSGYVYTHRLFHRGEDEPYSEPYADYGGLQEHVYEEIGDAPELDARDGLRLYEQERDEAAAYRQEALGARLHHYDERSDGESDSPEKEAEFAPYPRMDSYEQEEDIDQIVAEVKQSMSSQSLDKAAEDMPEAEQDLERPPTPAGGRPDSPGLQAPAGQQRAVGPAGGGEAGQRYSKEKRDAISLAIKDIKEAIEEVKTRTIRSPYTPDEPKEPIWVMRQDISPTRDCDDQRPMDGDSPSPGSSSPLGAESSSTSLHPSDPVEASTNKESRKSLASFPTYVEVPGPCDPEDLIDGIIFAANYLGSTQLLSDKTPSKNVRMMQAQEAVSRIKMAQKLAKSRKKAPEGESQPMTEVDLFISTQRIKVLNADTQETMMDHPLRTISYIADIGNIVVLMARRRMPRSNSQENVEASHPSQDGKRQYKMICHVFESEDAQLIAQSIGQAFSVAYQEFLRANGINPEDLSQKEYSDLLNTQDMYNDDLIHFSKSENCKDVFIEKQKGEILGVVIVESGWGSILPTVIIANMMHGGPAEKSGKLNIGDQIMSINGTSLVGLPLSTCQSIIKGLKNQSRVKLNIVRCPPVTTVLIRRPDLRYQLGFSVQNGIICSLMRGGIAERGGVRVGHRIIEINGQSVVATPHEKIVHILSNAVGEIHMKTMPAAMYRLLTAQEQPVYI
T5 sequence (Q9Y2R2 whole entry): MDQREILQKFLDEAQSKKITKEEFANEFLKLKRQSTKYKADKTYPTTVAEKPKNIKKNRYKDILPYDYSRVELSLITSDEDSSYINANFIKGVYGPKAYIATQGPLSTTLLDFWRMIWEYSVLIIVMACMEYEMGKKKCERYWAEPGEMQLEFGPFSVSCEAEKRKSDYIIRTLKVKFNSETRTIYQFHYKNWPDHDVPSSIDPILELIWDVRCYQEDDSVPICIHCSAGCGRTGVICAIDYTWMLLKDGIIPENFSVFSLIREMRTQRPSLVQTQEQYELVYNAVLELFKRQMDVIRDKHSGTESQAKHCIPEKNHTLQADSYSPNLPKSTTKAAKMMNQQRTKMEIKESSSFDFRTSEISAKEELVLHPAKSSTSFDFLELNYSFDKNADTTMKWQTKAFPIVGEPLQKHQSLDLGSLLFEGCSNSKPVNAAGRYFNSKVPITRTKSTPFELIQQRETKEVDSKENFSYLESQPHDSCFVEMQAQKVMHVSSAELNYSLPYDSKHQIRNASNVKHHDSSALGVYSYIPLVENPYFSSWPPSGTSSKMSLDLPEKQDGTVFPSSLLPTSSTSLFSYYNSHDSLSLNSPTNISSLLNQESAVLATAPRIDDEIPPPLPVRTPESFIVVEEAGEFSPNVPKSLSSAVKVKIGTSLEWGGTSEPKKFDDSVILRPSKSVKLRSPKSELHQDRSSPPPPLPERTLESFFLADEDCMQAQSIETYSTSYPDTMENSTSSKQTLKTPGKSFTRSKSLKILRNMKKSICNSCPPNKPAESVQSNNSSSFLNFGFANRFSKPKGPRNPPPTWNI
Tyrosine-protein phosphatase non-receptor type 7, sequence (P35236 whole entry): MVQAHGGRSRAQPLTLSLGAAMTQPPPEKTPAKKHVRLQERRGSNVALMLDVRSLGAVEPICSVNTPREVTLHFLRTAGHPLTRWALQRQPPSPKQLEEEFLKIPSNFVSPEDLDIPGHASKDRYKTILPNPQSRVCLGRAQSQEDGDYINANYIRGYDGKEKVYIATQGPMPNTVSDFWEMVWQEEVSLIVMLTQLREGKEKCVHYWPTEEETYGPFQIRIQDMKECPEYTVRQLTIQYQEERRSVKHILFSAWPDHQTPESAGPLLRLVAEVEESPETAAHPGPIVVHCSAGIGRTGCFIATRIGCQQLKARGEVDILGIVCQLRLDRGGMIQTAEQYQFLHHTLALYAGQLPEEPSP
Intestinal-type alkaline phosphatase (Homo sapiens, UniProt P09923), sequence (P09923 whole entry): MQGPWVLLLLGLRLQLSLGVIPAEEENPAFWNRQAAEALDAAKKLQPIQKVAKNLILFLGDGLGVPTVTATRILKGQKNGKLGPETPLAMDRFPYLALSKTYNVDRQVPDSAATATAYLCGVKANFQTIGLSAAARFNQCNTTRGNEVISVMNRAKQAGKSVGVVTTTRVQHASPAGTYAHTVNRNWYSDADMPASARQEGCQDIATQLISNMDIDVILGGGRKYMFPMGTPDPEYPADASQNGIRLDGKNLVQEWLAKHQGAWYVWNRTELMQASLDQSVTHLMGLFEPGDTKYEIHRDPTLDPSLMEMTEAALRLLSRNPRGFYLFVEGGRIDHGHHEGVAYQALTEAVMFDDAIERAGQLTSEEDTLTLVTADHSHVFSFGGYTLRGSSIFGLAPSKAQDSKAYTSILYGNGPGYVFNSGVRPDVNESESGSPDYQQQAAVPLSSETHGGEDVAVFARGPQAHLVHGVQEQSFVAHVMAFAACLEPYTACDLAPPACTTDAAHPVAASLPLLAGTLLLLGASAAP

In the case of `S=C(NCc1ccccc1)NC1CCSc2ccccc21` (configuration not stated), the IC50 [1] is reported as 3.3 µM (active), the IC50 [2] is reported as 60.7 µM (active) and the IC50 [3] is reported as 45.5 µM (active).
For `O=C(COC(=O)c1cc(-c2ccco2)nc2ccccc12)NCc1cccc(Cl)c1`, the IC50 [4] was 30.7 µM (active), the IC50 [5] was 23.7 µM (active) and the IC50 [6] was 4.63 µM (active).
`CSc1nc(-c2ccc(Cl)cc2)nn1C(=O)c1ccco1` was tested, and the EC50 [7] was > 380 µM (inactive), the IC50 [8] was > 79.4 µM (inactive) and the AC50 [9] was 0.387 µM (active). The IC50 [10] was > 79.4 µM (inactive), the IC50 [11] was > 79.4 µM (inactive) and the IC50 [12] was 2.31 µM (active).
